According to ChEMBL document CHEMBL1156341, “Synthesis of new artemisinin analogues from artemisinic acid modified at C-3 and C-13 and their antimalarial activity” (J Nat Prod, 2001):
Converted amounts (≈) assume the structure as drawn.

Experiments:
Plasmodium falciparum [1] = test: Antimalarial activity against chloroquine-resistant Plasmodium falciparum W2; type: functional, organism-based
Plasmodium falciparum [2] = test: Antimalarial activity against chloroquine-sensitive Plasmodium falciparum D6; type: functional, organism-based
[3] = Cytotoxicity against human vinblastine-resistant KBVIN cells in presence of vinblastine; type: functional, cell-based

SMILES | IC50 (Plasmodium falciparum [1]) [ng/mL] | IC50 (Plasmodium falciparum [2]) [ng/mL] | IC50 [3] [ng/mL]
C[C@@H]1CC[C@H]2[C@@H](C)C(=O)O[C@@H]3O[C@@]4(C)CC[C@@H]1[C@]32OO4 [ARTEMISININ] | 0.2 (≈ 0.000708 µM) | – | –
C[C@@H]1CC[C@H]2[C@@H](CC#N)C(=O)O[C@@H]3O[C@@]4(C)CC[C@@H]1[C@]32OO4 | 8.4 (≈ 0.0273 µM) | 18.4 (≈ 0.0599 µM) | –
C[C@@H]1CC[C@H]2[C@@H](CC[N+](=O)[O-])C(=O)O[C@@H]3O[C@@]4(C)CC[C@@H]1[C@]32OO4 | 0.26 (≈ 0.000762 µM) | 0.68 (≈ 0.00199 µM) | 5.1
CC(=O)O[C@@H]1C[C@H]2[C@H](C)CC[C@H]3[C@@H](C)C(=O)O[C@@H]4O[C@]1(C)OO[C@]423 | 2.07 (≈ 0.00608 µM) | 11.1 (≈ 0.0326 µM) | –
COC[C@H]1C(=O)O[C@@H]2O[C@@]3(C)CC[C@H]4[C@H](C)CC[C@@H]1[C@@]24OO3 | 59 (≈ 0.189 µM) | 75 (≈ 0.24 µM) | –
COC(=O)C[C@H]1C(=O)O[C@@H]2O[C@@]3(C)CC[C@H]4[C@H](C)CC[C@@H]1[C@@]24OO3 | 33 (≈ 0.097 µM) | 46 (≈ 0.135 µM) | –
C[C@@H]1CC[C@H]2C(=C3CC3)C(=O)O[C@@H]3O[C@@]4(C)CC[C@@H]1[C@]32OO4 | 4.3 (≈ 0.014 µM) | 6.2 (≈ 0.0202 µM) | –
CCS(=O)(=O)C[C@H]1C(=O)O[C@@H]2O[C@@]3(C)CC[C@H]4[C@H](C)CC[C@@H]1[C@@]24OO3 | > 500 | > 500 | –
OC(c1cc(C(F)(F)F)nc2c(C(F)(F)F)cccc12)C1CCCCN1 (centres undefined) [MEFLOQUINE] | 3.6 (≈ 0.00952 µM) | – | –
C=C[C@H]1CN2CC[C@H]1C[C@H]2[C@H](O)c1ccnc2ccc(OC)cc12 [QUININE] | 102 (≈ 0.314 µM) | 19.6 (≈ 0.0604 µM) | –
